Test results: patent US20070088508A1, “Cocrystallization methods” (priority 2005, published 2007)

Experiments:
[1] = Solubility in aqueous systems; type: physicochemical
Excerpt: Five cocrystals of 2-4-(4-chloro-2-fluorophenoxy)phenyl]pyrimidine-4-carboxamide (Compound 1) were identified by using techniques of the disclosure. […] Although the permeability of Compound 1 could not be measured in Caco-2 cells because of its inherently low solubility, Compound 1 is suspected to be a Class II compound (low solubility and high permeability) as described in the biopharmaceutical drug classification scheme (BCS) (Amidon, Gordon L., Lennernaes, Hans, Shah, Vinod P. and Crison, John R. (1995) “A theoretical basis for a biopharmaceutic drug classification: the correlation of in vitro drug product dissolution and in vivo bioavailability” Pharmaceutical Research […], 12(3), 4 13-20). The calculated octanol/water partition coefficient (clogP) for Compound 1 is 2.9, supporting this suspicion (Yazdanian, Mehran, Glynn, Susan L., Wright, James L., and Hawi, Amale. (1998) “Correlating partitioning and Caco-2 cell permeability of structurally diverse small molecular weight compounds” Pharmaceutical Research 1998 15(9), 1490-1494). […] Cocrystallization techniques were used as a tool to improve the pharmaceutical properties of Compound 1.

[2] = Intrinsic dissolution studies; type: physicochemical; conditions: crystalline solid
Protocol: Intrinsic dissolution measurements were performed using a fiber optic probe (Delphian® type 11A fiber optic workstation, baseline correction mode with sample wavelength maximum of 279 nm and baseline wavelength of 350 nm) at 37° C. and 100 rpm in a USP apparatus II dissolution vessel (Vankel VK7010) containing 500 mL of pure water. Disks 0.8 cm diameter were compressed using 70 mg of solid in stainless steel dies (Vankel Woods apparatus) at 1000 lbs for 60 seconds with a Carver Press. Dissolution studies for cocrystal 2 lasted 90 minutes, after which time the disks were recovered, carefully ground and checked by XRPD for the presence of cocrystal. Due to the low solubility of Compound 1, dissolution studies were run over 24 hours in order to get a measurable rate.

[3] = Pharmacokinetic evaluation in beagle dogs after oral dosing of neat solid in gelatin capsule; type: in vivo; conditions: oral dosing of the crystalline solid
Protocol: A study was conducted to compare the pharmacokinetic profiles of Compound 1 and Cocrystal 2. Compound 1 and Cocrystal 2 were administered as neat solids to six male beagle dogs in a crossover study with a two-week washout period between treatments. Each dog was dosed with either Compound 1 or Cocrystal 2 in a gelatin capsule after an overnight fast. All research involving animal subjects adhered to the “Principles of Laboratory Animal Care” (NIH publication #85-23). Dose levels of 5 mg/kg and 50 mg/kg were each evaluated. Each dog received one size #2 capsule for the 5 mg/kg dose. Dosing at 50 mg/kg required use of two size #00 capsules for each dog. Blood samples were collected at intervals for 36 hours post-dose. Non-compartmental pharmacokinetic metrics were determined using WinNonlin v. 1.5 (Scientific Consulting, Inc., Mountain View, Calif.). The area under the plasma concentration-time curve (AUC) was estimated by application of the linear trapezoidal rule. Statistical analyses were conducted using Microsoft Excel 2000; statistical significance was considered when p<0.05.

solubility in aqueous systems [1]: < 0.1 µg/mL | in-vitro dissolution [2]: low | in-vivo plasma concentrations [3]: low
SMILES: NC(=O)c1ccnc(-c2ccc(Oc3ccc(Cl)cc3F)cc2)n1 [Compound 1]
